Experimental data: EP0565593B1, “REDUCING PESTICIDAL INTERACTIONS IN CROPS” (priority 1990, dated 1992)

How the values were obtained:
Corn [1] = assay: Greenhouse test Procedure II: herbicide, insecticide and antidote incorporated in cover layer (Example 4; Table 4); format: in vivo; details: 3 weeks
Procedure: Containers were filled and compacted with a fumigated silt loam top soil to a depth of about 1.3 cm from the top of the container. A first container was designated as an untreated control, a second container was designated as a herbicide control, and a third container was designated as a herbicide + antidote test container. Each of the containers was seeded with a crop species. A measured amount of herbicide dispersed or dissolved in acetone was applied to a measured quantity of soil. To this same quantity of soil treated with herbicide, there was added a measured amount of antidote dispersed or dissolved in acetone. The quantity of soil treated with the herbicide and antidote was thoroughly mixed to incorporate the herbicide and antidote in the soil uniformly. The seed bed in the third container of soil was covered with the soil treated with the herbicide and antidote and the container was leveled. For each test series, the seed beds of the first and second containers were likewise covered by soil layers. the cover layer of the first container was not treated with herbicide or antidote.
This procedure is the same as Procedure I, but modified in the manner that after incorporation of the chemicals (herbicide, antidote and insecticide), the containers with the covered seedbed were treated with an initial overhead irrigation equivalent to 0.6 cm rainfall, then subsequently sub-irrigated as required on greenhouse benches.
The procedure used in this test was Procedure No. 2 above. Formulations of herbicide, insecticide and antidote were applied via track sprayer sequentially onto cover layers, incorporated into the soil which was spread over seedbeds, then irrigated from above with 0.6 cm water. Observations were made three (3) weeks after treatment.

Velvetleaf (VELE) = assay: whole plant or invertebrate; format: in vivo, Abutilon theophrasti; details: PPI
grain sorghum (GRSO) = assay: Multi-crop greenhouse test, soil-applied (Examples 65, 66; Tables 64, 65); format: in vivo
Procedure: (§1) Tests according to this invention in various crops indicate widespread application of the invention. In Examples 62-66 below are described tests with a variety of herbicides contacted with COUNTER® 15G in the presence and absence of MON-7400 (Antidote No. 12); MON-13900 (No. 1); MON-4660 (No. 16) and flurazole (No. 16). Those tests were conducted according to Procedures IV or V described above and illustrated further in other foregoing examples. Plants used in all tests were, for crops (as abbreviated in parentheses); cotton (COTT); soybean (SOBE); CORN, grain sorghum (GRSO); wheat (WHEA) and RICE, and the weeds giant foxtail (GIFT) and velvetleaf (VELE). The data in the tables below represent averages of two replications.
(§2) In this test the crops and weeds were planted 1.3 cm deep in 13.7 cm X 27.7 cm pans containing Dupo silt loam soil. The test safeners were applied in acetone solution and COUNTER 15G as dry granules to soil cover layers and incorporated by shaking in a bag. Treated cover layers were placed on seeded pans which were transferred to greenhouse benches and subirrigated. Herbicide was applied POE six (6) days after PPI initiation and observations of plant injury made ten (10) days later; results are shown in Table 61. The herbicide used in this example was BEACON (No. 8).
(§3) In another test in the several crops and weeds used in this test series, the herbicidal component was MON-12000 (No. 1); the other components were the same. the procedure used in this test was the same as that described in Example 62, modified to use a light overhead irrigation (about 0.32 cm/day) during days 4-7 of the test. Table 64 […]

Giant foxtail (GIFT) = assay: as above; format: in vivo
Procedure: as §1, §2, §3

soybean (SOBE) = assay: as above; format: in vivo
Procedure: as §1, §2, §3

wheat (WHEA) = assay: as above; format: in vivo
Procedure: as §1, §2, §3

Corn [2] = assay: as above; format: in vivo
Procedure: as §1, §2, §3

RICE = assay: as above; format: in vivo
Procedure: as §1, §2, §3

[3] = Table 64, Herb. No. 1 0.018 Kg/Ha + Biocide No. 1 8.96 Kg/Ha + Antidote 4.48 Kg/Ha
[4] = Table 64, Herb. No. 1 0.07 Kg/Ha + Biocide No. 1 8.96 Kg/Ha + Antidote 4.48 Kg/Ha
[5] = Table 64, Herb. No. 1 0.28 Kg/Ha + Biocide No. 1 8.96 Kg/Ha + Antidote 4.48 Kg/Ha
[6] = Table 65, Herb. No. 1 0.018 Kg/Ha + Biocide No. 1 8.96 Kg/Ha + Antidote 4.48 Kg/Ha
[7] = Table 65, Herb. No. 1 0.07 Kg/Ha + Biocide No. 1 8.96 Kg/Ha + Antidote 4.48 Kg/Ha
[8] = Table 65, Herb. No. 1 0.28 Kg/Ha + Biocide No. 1 8.96 Kg/Ha + Antidote 4.48 Kg/Ha

Compound: CC1(C)OC(c2ccco2)CN1C(=O)C(Cl)Cl (stereo not shown) [Antidote No. 1, Oxazolidine, 3-(dichloroacetyl)-2,2-dimethyl-5-(2-furanyl)-]
- % Injury Corn (Corn [1]; Antidote 1 0.07 + Herbicide 1 0.07 kg/Ha): 0%
- % Injury Corn (Corn [1]; Antidote 1 0.07 + Herbicide 4 0.07 kg/Ha): 0%
- % Injury Corn (Corn [1]; Antidote 1 0.07 + Herbicide 5 0.07 kg/Ha): 20%
- % Injury Corn (Corn [1]; Antidote 1 0.07 + Herbicide 6 0.07 kg/Ha): 0%
- % Injury Corn (Corn [1]; Antidote 1 0.14 + Herbicide 1 0.14 kg/Ha): 10%
- % Injury Corn (Corn [1]; Antidote 1 0.14 + Herbicide 4 0.14 kg/Ha): 8%
- % Injury Corn (Corn [1]; Antidote 1 0.14 + Herbicide 5 0.14 kg/Ha): 55%
- % Injury Corn (Corn [1]; Antidote 1 0.14 + Herbicide 6 0.14 kg/Ha): 3%
- % Injury Corn (Corn [1]; Insecticide 2 3.36 + Antidote 1 0.014 + Herbicide 1 0.14 kg/Ha): 0%
- % Injury Corn (Corn [1]; Insecticide 2 3.36 + Antidote 1 0.07 + Herbicide 1 0.07 kg/Ha): 0%
- % Injury Corn (Corn [1]; Insecticide 2 3.36 + Antidote 1 0.07 + Herbicide 4 0.07 kg/Ha): 25%
- % Injury Corn (Corn [1]; Insecticide 2 3.36 + Antidote 1 0.07 + Herbicide 5 0.07 kg/Ha): 95%
- % Injury Corn (Corn [1]; Insecticide 2 3.36 + Antidote 1 0.07 + Herbicide 6 0.07 kg/Ha): 5%
- % Injury Corn (Corn [1]; Insecticide 2 3.36 + Antidote 1 0.14 + Herbicide 4 0.14 kg/Ha): 88%
- % Injury Corn (Corn [1]; Insecticide 2 3.36 + Antidote 1 0.14 + Herbicide 5 0.14 kg/Ha): 95%
- % Injury Corn (Corn [1]; Insecticide 2 3.36 + Antidote 1 0.14 + Herbicide 6 0.14 kg/Ha): 63%

Compound: CC1(C)OC(c2ccco2)CN1C(=O)C(Cl)Cl (stereo not shown) [compound 1]
- % Inhibition VELE (Velvetleaf (VELE); […], 13 days after PPI (Table 31)): 85%
- % Inhibition VELE (Velvetleaf (VELE); antidote 4.48 Kg/Ha + Herb. […], 13 days after planting): 90%
- % Inhibition GRSO (grain sorghum (GRSO); [3]): 0%
- % Inhibition GRSO (grain sorghum (GRSO); [4]): 0%
- % Inhibition GRSO (grain sorghum (GRSO); [5]): 0%
- % Inhibition GRSO (grain sorghum (GRSO); [6]): 0%
- % Inhibition GRSO (grain sorghum (GRSO); [7]): 25%
- % Inhibition GRSO (grain sorghum (GRSO); [8]): 65%
- % Inhibition GIFT (Giant foxtail (GIFT); [3]): 50%
- % Inhibition GIFT (Giant foxtail (GIFT); [4]): 70%
- % Inhibition GIFT (Giant foxtail (GIFT); [5]): 85%
- % Inhibition GIFT (Giant foxtail (GIFT); [6]): 40%
- % Inhibition GIFT (Giant foxtail (GIFT); [7]): 80%
- % Inhibition GIFT (Giant foxtail (GIFT); [8]): 95%
- % Inhibition SOBE (soybean (SOBE); [3]): 35%
- % Inhibition SOBE (soybean (SOBE); [4]): 75%
- % Inhibition SOBE (soybean (SOBE); [5]): 70%
- % Inhibition SOBE (soybean (SOBE); [6]): 0%
- % Inhibition SOBE (soybean (SOBE); [7]): 0%
- % Inhibition SOBE (soybean (SOBE); [8]): 5%
- % Inhibition WHEA (wheat (WHEA); [3]): 0%
- % Inhibition WHEA (wheat (WHEA); [4]): 0%
- % Inhibition WHEA (wheat (WHEA); [5]): 0%
- % Inhibition WHEA (wheat (WHEA); [6]): 10%
- % Inhibition WHEA (wheat (WHEA); [7]): 25%
- % Inhibition WHEA (wheat (WHEA); [8]): 70%
- % Inhibition Corn (Corn [2]; [3]): 5%
- % Inhibition Corn (Corn [2]; [4]): 15%
- % Inhibition Corn (Corn [2]; [5]): 10%
- % Inhibition Corn (Corn [2]; [6]): 0%
- % Inhibition Corn (Corn [2]; [7]): 5%
- % Inhibition Corn (Corn [2]; [8]): 20%
- % Inhibition RICE (RICE; [3]): 0%
- % Inhibition RICE (RICE; [4]): 10%
- % Inhibition RICE (RICE; [5]): 25%
- % Inhibition RICE (RICE; [6]): 10%
- % Inhibition RICE (RICE; [7]): 25%
- % Inhibition RICE (RICE; [8]): 95%

Compound: COC(=O)COC(c1ccccc1)c1ccccc1 [compound 12]
- % Inhibition VELE (Velvetleaf (VELE); […], 14 days after PPI (Table 34)): 90%
- % Inhibition GRSO (grain sorghum (GRSO); [3]): 0%
- % Inhibition GRSO (grain sorghum (GRSO); [4]): 15%
- % Inhibition GRSO (grain sorghum (GRSO); [5]): 0%
- % Inhibition GRSO (grain sorghum (GRSO); [6]): 0%
- % Inhibition GRSO (grain sorghum (GRSO); [7]): 20%
- % Inhibition GRSO (grain sorghum (GRSO); [8]): 55%
- % Inhibition GIFT (Giant foxtail (GIFT); [3]): 30%
- % Inhibition GIFT (Giant foxtail (GIFT); [4]): 70%
- % Inhibition GIFT (Giant foxtail (GIFT); [5]): 75%
- % Inhibition GIFT (Giant foxtail (GIFT); [6]): 25%
- % Inhibition GIFT (Giant foxtail (GIFT); [7]): 80%
- % Inhibition GIFT (Giant foxtail (GIFT); [8]): 85%
- % Inhibition SOBE (soybean (SOBE); [3]): 5%
- % Inhibition SOBE (soybean (SOBE); [4]): 70%
- % Inhibition SOBE (soybean (SOBE); [5]): 80%
- % Inhibition SOBE (soybean (SOBE); [6]): 0%
- % Inhibition SOBE (soybean (SOBE); [7]): 0%
- % Inhibition SOBE (soybean (SOBE); [8]): 15%
- % Inhibition WHEA (wheat (WHEA); [3]): 0%
- % Inhibition WHEA (wheat (WHEA); [4]): 0%
- % Inhibition WHEA (wheat (WHEA); [5]): 0%
- % Inhibition WHEA (wheat (WHEA); [6]): 0%
- % Inhibition WHEA (wheat (WHEA); [7]): 0%
- % Inhibition WHEA (wheat (WHEA); [8]): 20%
- % Inhibition Corn (Corn [2]; [3]): 0%
- % Inhibition Corn (Corn [2]; [4]): 10%
- % Inhibition Corn (Corn [2]; [5]): 10%
- % Inhibition Corn (Corn [2]; [6]): 0%
- % Inhibition Corn (Corn [2]; [7]): 0%
- % Inhibition Corn (Corn [2]; [8]): 20%
- % Inhibition RICE (RICE; [3]): 0%
- % Inhibition RICE (RICE; [4]): 10%
- % Inhibition RICE (RICE; [5]): 10%
- % Inhibition RICE (RICE; [6]): 0%
- % Inhibition RICE (RICE; [7]): 20%
- % Inhibition RICE (RICE; [8]): 70%
